Target: T1, IRAK-4 (Homo sapiens, UniProt Q9NWZ3)
T1 sequence (Q9NWZ3 1-460): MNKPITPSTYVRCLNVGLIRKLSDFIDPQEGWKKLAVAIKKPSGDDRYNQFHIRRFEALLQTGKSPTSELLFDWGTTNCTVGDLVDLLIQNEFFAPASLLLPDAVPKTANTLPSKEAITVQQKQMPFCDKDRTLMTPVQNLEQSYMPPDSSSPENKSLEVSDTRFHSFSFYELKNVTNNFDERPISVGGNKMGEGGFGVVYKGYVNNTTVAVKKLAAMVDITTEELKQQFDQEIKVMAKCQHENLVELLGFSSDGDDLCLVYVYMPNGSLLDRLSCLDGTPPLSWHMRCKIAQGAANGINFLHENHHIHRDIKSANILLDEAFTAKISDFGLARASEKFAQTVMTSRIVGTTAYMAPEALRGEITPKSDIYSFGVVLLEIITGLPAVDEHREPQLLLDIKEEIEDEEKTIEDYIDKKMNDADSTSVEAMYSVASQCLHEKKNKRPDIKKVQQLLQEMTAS
Assay: IRAK-4 ELISA, OCI-Ly10 degradation
Assay type: cell-based
Parameters: endogenous in cells
Conditions: treated overnight; for Dmax: OCI-Ly10, OCI-Ly10 cells; for DC50: OCI-Ly10 cells
Method: Reagents: Human IRAK-4 Matched Antibody Pair Kit (Abcam ab218182) and ELISA Accessory Pack (Abcam ab210905).
Cell Treatment and Lysis:
1. OCI-Ly10: 200,000 cells are seeded at 1×10^6/ml in 96-well U-bottom plates 200 ul per well, treated with compound the same day. Incubate overnight. 2. PBMC: 800,000 cells are seeded at 2×10^6/ml in 96-well U-bottom deep-well plates, 400 ul per well, treated with compound the same day. Incubate overnight.
Cell lysate is collected and analyzed by ELISA for IRAK-4 levels.

| SMILES | Dmax | DC50 |
| --- | --- | --- |
| CC(C)Oc1cc2c(cc1NC(=O)c1cnn3cccnc13)CN(C1CCN(CCc3ccc4c(c3)C(=O)N(C3CCC(=O)NC3=O)C4=O)CC1)C2=O (stereo not drawn) [Example 7] | 80 to 90% | 0.01 to 0.05 µM |
| CC(C)Oc1cc2c(cc1NC(=O)c1cnn3cccnc13)CN(C1CCN(CCc3ccc4c(c3)CN(C3CCC(=O)NC3=O)C4=O)CC1)C2=O (stereo not drawn) [Example 8] | ≥ 90% | < 0.01 µM |
| CC(C)Oc1cc2c(cc1NC(=O)c1cnn3cccnc13)CN(C1CCN(Cc3ccc4c(c3)CN(C3CCC(=O)NC3=O)C4=O)CC1)C2=O (stereo not drawn) [Example 10] | – | ≥ 0.1 µM |
| CC(C)Oc1cc2c(cc1NC(=O)c1cnn3cccnc13)CN(CC1CN(CCc3ccc4c(c3)CN(C3CCC(=O)NC3=O)C4=O)C1)C2=O (stereo not drawn) [Example 26] | – | ≥ 0.1 µM |
| O=C1CCC(N2C(=O)c3ccc(N4CCC(CN5CCC(N6Cc7cc(NC(=O)c8cnn9cc(Cl)cnc89)c(N8CCOCC8)cc7C6=O)CC5)CC4)cc3C2=O)C(=O)N1 (stereo not drawn) [Example 33] | 80 to 90% | 0.01 to 0.05 µM |
| O=C1CCC(N2Cc3cc(N4CC(CN5CCC(N6Cc7cc(NC(=O)c8cnn9cccnc89)c(N8CCOCC8)cc7C6=O)CC5)C4)ccc3C2=O)C(=O)N1 (stereo not drawn) [Example 34] | – | ≥ 0.1 µM |
| O=C1CCC(N2Cc3cc(N4CC(CN5CCC(N6Cc7cc(NC(=O)c8cnn9cccnc89)c(N8CCC(N9CCC9)CC8)cc7C6=O)CC5)C4)ccc3C2=O)C(=O)N1 (stereo not drawn) [Example 35] | ≥ 90% | 0.01 to 0.05 µM |
| O=C1CCC(N2C(=O)c3ccc(CCN4CCC(N5Cc6cc(NC(=O)c7cnn8cccnc78)c(N7CCOCC7)cc6C5=O)CC4)cc3C2=O)C(=O)N1 (stereo not drawn) [Example 37] | – | ≥ 0.1 µM |
| CC(C)Oc1cc2c(cc1NC(=O)c1cnn3cccnc13)CN(C1CCN(C3CN(c4cc5c(cc4F)C(=O)N(C4CCC(=O)NC4=O)C5=O)C3)CC1)C2=O (stereo not drawn) [Example 63] | ≥ 90% | 0.01 to 0.05 µM |
| O=C1CCC(N2Cc3cc(N4CCC(CN5CCC(n6cc7cc(NC(=O)c8cnn9cccnc89)c(OCC8CC8)cc7n6)CC5)CC4)ccc3C2=O)C(=O)N1 (stereo not drawn) [Example 118, N-(6-(cyclopropylmethoxy)-2-(1-((1-(2-(2,6-dioxopiperidin-3-yl)-1-oxoisoindolin-5-yl)piperidin-4-yl)methyl)piperidin-4-yl)-2H-indazol-5-yl)pyrazolo[1,5-a]pyrimidine-3-carboxamide] | ≥ 90% | < 0.01 µM |
| O=C1CCC(N2C(=O)c3ccc(OCCOCCN4CCC(n5cc6cc(NC(=O)c7cnn8cc(Cl)cnc78)c(OCC7CC7)cc6n5)CC4)cc3C2=O)C(=O)N1 (stereo not drawn) [Example 120] | ≥ 90% | 0.01 to 0.05 µM |

Source: US20230099344A1, “COMPOUNDS AND METHODS FOR THE TARGETED DEGRADATION OF IRAK-4” (Arvinas Operations, Inc., priority 2021, published 2023)
